The record followed here is US8247596B2 (Sumitomo Chemical Company, Limited, priority 2007, dated 2012).

What all share (format): in vivo
The subject of one assay is Musca domestica. The experiment in a line: Test Example 4: filter paper/sucrose bait test on Musca domestica. The note with it: 24 h, read-out: pest death rate. How it is done:
A formulation of any one of the present compounds (1), (4), (5), (7), (11), (12), (13), (18t), (18c), (19), (20), (21), (22), (24), (25t), (25c), (26t), (26c), (27), (29), (30), (31), (32), (33), (34), (35), (40), (41), (43), (49), (50) and (55) obtained according to Formulation Example 36 was diluted with water so that the active ingredient concentration was 500 ppm to obtain a test solution.
A filter paper having a diameter of 5.5 cm was spread on the bottom of a polyethylene cup having a diameter of 5.5 cm and 0.7 ml of the test solution was added dropwise onto the filter paper. As a bait 30 mg of sucrose was uniformly placed on the filter paper. Into the polyethylene cup, 10 female imagoes of Musca domestica were released and the cup was sealed with a lid. After 24 hours, the number of surviving Musca domestica was examined and the death rate of the pest was calculated.

Another assay deals with Blattalla germanica. As to the kind of experiment: Test Example 5: filter paper/sucrose bait test on Blattalla germanica. The note with it: for pest or weed control at 500 ppm: 144 h, read-out: pest death rate. As to the method: A formulation of any one of the present compounds (4), (5), (7), (12), (13), (18t), (18c), (22), (25t), (25c), (26t), (26c), (29), (30), (31), (32), (33), (34), (40), (41), (43), (49) and (55) obtained according to Formulation Example 36 was diluted with water so that the active ingredient concentration was 500 ppm to obtain a test solution.
A filter paper having a diameter of 5.5 cm was spread on the bottom of a polyethylene cup having a diameter of 5.5 cm and 0.7 ml of the test solution was added dropwise onto the filter paper. As a bait 30 mg of sucrose was uniformly placed on the filter paper. Into the polyethylene cup, 2 male imagoes of Blattalla germanica were released and the cup was sealed with a lid. After 6 days, the number of surviving Blattalla germanica was examined and the death rate of the pest was calculated.

For a further assay, the system named is Culex pipiens pallens. The experiment in a line: Test Example 6: larvae of Culex pipiens pallens in treated water. The note with it: 24 h, read-out: pest death rate. How it is done:
A formulation of any one of the present compounds (7), (11), (12), (13), (17), (18t), (18c), (22), (24), (25t), (25c), (26t), (26c), (27), (29), (33), (34), (35), (36), (38), (40), (41), (43), (47), (49), (50) and (55) obtained according to Formulation Example 36 was diluted with water so that the active ingredient concentration was 500 ppm to obtain a test solution.
To 100 mL of ion-exchanged water, 0.7 ml of the test solution was added (active ingredient concentration: 3.5 ppm). Into the solution, 20 last-instar larvae of Culex pipiens pallens were released. One day after, the number of surviving Culex pipiens pallens was examined and the death rate of the pest was calculated.

Assay [1] deals with Haemaphysalis longicornis. As to the kind of experiment: Test Example 7: treated filter paper pouch test on ticks. The note with it: filter paper treated with 100 mg/m^2, non-blood-sucking nymphal ticks, 10 ticks/group, two days after; for pest or weed control at 100 mg/m2: Haemaphysalis longicornis, 48 h, read-out: pest death rate. As to the method: Five milligrams of any one of the present compounds (4), (7), (18t), (22), (25t), (26t), (29), (30), (31), (32), (33), (34), (35), (40), (41), (42), (43), (44) and (55) was dissolved in 10 mL of acetone. One milliliter of the acetone solution was uniformly applied on one side of a filter paper (TOYO No. 2; 5×10 cm), so that the filter paper having a surface area of 50 cm^2 was treated with 100 mg/m^2 of the present compound. After drying, the filter paper was folded in two and its edges were clipped to make a pouch. Test ticks (non-blood-sucking nymphal ticks, Haemaphysalis longicornis, 10 ticks/group) were put into the pouch, and the pouch was sealed with clips. Two days after, the number of surviving ticks was examined and the death rate was calculated.

Each structure is given as a SMILES string.

As to `C#CC1=CCC(CS(=O)(=O)CCC(F)(F)F)CC1` (stereo not drawn), the pest or weed control at 500 ppm in the assay on Musca domestica is no less than 90%; in the assay with Blattalla germanica, 100%. Moreover, the pest or weed control at 3.5 ppm with Culex pipiens pallens is no less than 95%. Moreover, the pest or weed control at 100 mg/m2 in assay [1] is 90%.
In the case of `FC(F)(F)CCSCC1CCC2(CC1)OCCO2` [present compound (1)], in the assay on Musca domestica, the pest or weed control at 500 ppm is no less than 90%.
Consider `O=S(=O)(CCC(F)(F)F)CC1CCC(F)(F)CC1` [present compound (4), 1,1-difluoro-4-(3,3,3,-trifluoropropylsulfonylmethyl)cyclohexanone], for which the pest or weed control at 500 ppm in the assay on Musca domestica was no less than 90%; with Blattalla germanica it was 100%. Besides, the pest or weed control at 100 mg/m2 in assay [1] was 90%.
On to `O=S(=O)(CCC(F)(F)F)CC1CC=C(F)CC1` (stereo not drawn) [present compound (5)], for which the pest or weed control at 500 ppm in the assay with Musca domestica was no less than 90%; with Blattalla germanica, 100%.
Consider `COC(=O)C(C1CCC(F)(F)CC1)S(=O)(=O)CCC(F)(F)F` (stereo not drawn) [present compound (11), methyl 2-(4,4-difluorocyclohexyl)-2-(3,3,3-trifluoropropylsulfonyl)acetate], for which, in the assay on Musca domestica, the pest or weed control at 500 ppm is no less than 90%. Also, in the assay on Culex pipiens pallens, the pest or weed control at 3.5 ppm was no less than 95%.
On to `COC(=O)C(F)(C1CCC(F)(F)CC1)S(=O)(=O)CCC(F)(F)F` (stereo not drawn) [present compound (12), methyl 2-(4,4-difluorocyclohexyl)-2-fluoro-2-(3,3,3-trifluoropropylsulfonyl)acetate], for which the pest or weed control at 500 ppm is no less than 90% in the assay with Musca domestica and 100% with Blattalla germanica. Moreover, in the assay with Culex pipiens pallens, the pest or weed control at 3.5 ppm is no less than 95%.
The corresponding values for `NC(=O)C(F)(C1CCC(F)(F)CC1)S(=O)(=O)CCC(F)(F)F` (stereo not drawn) [present compound (13), 2-(4,4-difluorocyclohexyl)-2-fluoro-2-(3,3,3-trifluoropropylsulfonyl)acetamide] are no less than 90%, 100% and no less than 95%.
With `O=S(=O)(CCC(F)(F)F)CC1CCC(C=C(Br)Br)CC1` (stereo not drawn) [present compound (17), 1-(2,2-dibromovinyl)-4-(3,3,3-trifluoropropylsulfonylmethyl)cyclohexane], the pest or weed control at 3.5 ppm in the assay with Culex pipiens pallens is no less than 95%.
As to `COC(=O)CCC#CC1CCC(CS(=O)(=O)CCC(F)(F)F)CC1` (stereo not drawn) [present compound (19), 5-[4-(3,3,3-trifluoropropylsulfonylmethyl)cycohexanyl]-4-pentynic acid methyl ester], the pest or weed control at 500 ppm in the assay with Musca domestica is no less than 90%.
The same measure, in the same setting: to `N#CC1CCC(CS(=O)(=O)CCC(F)(F)F)CC1` (stereo not drawn) [present compound (20), 1-cyano-4-(3,3,3-trifluoropropylsulfonylmethyl)cyclohexane] belongs no less than 90%.
On the same count and under the same terms, to `CON=C1CCC(CS(=O)(=O)CCC(F)(F)F)CC1` (stereo not drawn) [present compound (21), 4-(3,3,3-trifluoropropylsulfonylmethyl)-cyclohexanone O-methyloxime] belongs no less than 90%.
Turning to `FC(F)(F)CCSCC1CCC(C=C(Br)Br)CC1` (stereo not drawn) [present compound (24), 1-(2,2-dibromovinyl)-4-(3,3,3-trifluoropropylthiomethyl)cyclohexane], in the assay on Musca domestica, the pest or weed control at 500 ppm is no less than 90%. Further, the pest or weed control at 3.5 ppm with Culex pipiens pallens is no less than 95%.
As to `C#CC1CCC(CSCCC(F)(F)F)CC1` (stereo not drawn) [present compound (25c)], the pest or weed control at 500 ppm in the assay on Musca domestica was no less than 90%; with Blattalla germanica, 100%. Besides, in the assay on Culex pipiens pallens, the pest or weed control at 3.5 ppm was no less than 95%.
As to `N#CC(C1CCC2(CC1)OCCO2)S(=O)(=O)CCC(F)(F)F` (stereo not drawn) [present compound (27), 2-(1,4-dioxaspiro[4.5]dec-8-yl)-2-(3,3,3-trifluoropropylsulfonyl)acetonitrile], the pest or weed control at 500 ppm in the assay on Musca domestica is no less than 90%. Moreover, the pest or weed control at 3.5 ppm in the assay on Culex pipiens pallens is no less than 95%.
Turning to `C#CC1(O)CCC(C(C#N)S(=O)(=O)CCC(F)(F)F)CC1` (stereo not drawn) [present compound (30), 2-(4-ethynyl-4-hydroxycyclohexyl)-2-(3,3,3-trifluoropropylsulfonyl)acetonitrile], the pest or weed control at 500 ppm was no less than 90% with Musca domestica and 100% in the assay on Blattalla germanica. The pest or weed control at 100 mg/m2 in assay [1] is 90%.
The corresponding values for `C#CC1(F)CCC(C(C#N)S(=O)(=O)CCC(F)(F)F)CC1` (stereo not drawn) [present compound (31), 2-(4-ethynyl-4-fluorocyclohexyl)-2-(3,3,3-trifluoropropylsulfonyl)acetonitrile] are no less than 90%, 100% and 90%.
The corresponding values for `C#CC1CCC=CC1C(C#N)S(=O)(=O)CCC(F)(F)F` (stereo not drawn) [present compound (32), 2-(4-ethynyl-cyclohexen-3-yl)-2-(3,3,3-trifluoropropylsulfonyl)acetonitrile] are no less than 90%, 100% and 90%.
Regarding `CCON=C1CCC(C(C#N)S(=O)(=O)CCC(F)(F)F)CC1` (stereo not drawn) [present compound (35), 2-[4-(ethoxyimino)cyclohexyl]-2-(3,3,3-trifluoropropylsufonyl)acetonitrile], the pest death rate in assay [1] was found to be 90%.
For the compound `CC(C)(C)ON=C1CCC(C(C#N)S(=O)(=O)CCC(F)(F)F)CC1` (stereo not drawn) [present compound (36), 2-[4-(t-butoxyimino)cyclohexyl]-2-(3,3,3-trifluoropropylsulfonyl)acetonitrile], the pest or weed control at 3.5 ppm with Culex pipiens pallens is no less than 95%.
Same read-out and setting: to `N#CC(C1CCC(=NOCc2ccccc2)CC1)S(=O)(=O)CCC(F)(F)F` (stereo not drawn) [present compound (38), 2-[4-(O-benzylhydroxylimino)cyclohexyl]-2-(3,3,3-trifluoropropylsulfonyl)acetonitrile] belongs no less than 95%.
As for `CCCC(C#N)(C1CCC(=NOC)CC1)S(=O)(=O)CCC(F)(F)F` (stereo not drawn) [present compound (42), 2-[4-(methoxyimino)cyclohexyl]-2-(3,3,3-trifluoropropylsulfonyl)pentanenitrile], in assay [1], the pest or weed control at 100 mg/m2 was 90%.
For the compound `C=CC(C)C(C#N)(C1CCC(=NOC)CC1)S(=O)(=O)CCC(F)(F)F` (stereo not drawn) [present compound (43), 2-[4-(methoxyimino)cyclohexyl]-3-methyl-2-(3,3,3-trifluoropropylsufonyl)-4-pentenenitrile], the pest death rate was found to be 100% with Blattalla germanica (500 ppm, 0.7 ml on filter paper, 2 male imagoes of Blattalla germanica, after 6 days) and 90% in assay [1].
Take `C#CC(C)C(C#N)(C1CCC(=NOC)CC1)S(=O)(=O)CCC(F)(F)F` (stereo not drawn) [present compound (44), 2-[4-(methoxyimino)cyclohexyl]-3-methyl-2-(3,3,3-trifluoropropylsulfonyl)-4-pentynenitrile]: the pest or weed control at 100 mg/m2 in assay [1] was found to be 90%.
As to `N#CC(C1CCCCC1)S(=O)(=O)CCC(F)(F)F` (stereo not drawn) [present compound (47), 2-cyclohexyl-2-(3,3,3-trifluoropropylsulfonyl)acetonitrile], in the assay on Culex pipiens pallens, the pest or weed control at 3.5 ppm is no less than 95%.
Turning to `CC1CCC(C(C#N)S(=O)(=O)CCC(F)(F)F)CC1` (stereo not drawn) [present compound (49), 2-(4-methylcyclohexyl)-2-(3,3,3-trifluoropropylsulfonyl)acetonitrile], the results for the pest or weed control at 500 ppm in the assay on Musca domestica and in the assay with Blattalla germanica were no less than 90% and 100%, respectively. Further, the pest or weed control at 3.5 ppm in the assay with Culex pipiens pallens was no less than 95%.
As to `CC1(C)CCC(C(C#N)S(=O)(=O)CCC(F)(F)F)CC1` (stereo not drawn) [present compound (50), 2-(4,4-dimethylcyclohexyl)-2-(3,3,3-trifluoropropylsulfonyl)acetonitrile], the pest or weed control at 500 ppm with Musca domestica was no less than 90%. In the assay on Culex pipiens pallens, the pest or weed control at 3.5 ppm was no less than 95%.
